SMILES strings stand for the structures.

For this experiment, the target named is T1, CD73 (Calu-6 cells) (Homo sapiens, UniProt P21589).
T1 construct: endogenous in cells; host or cells: Calu-6 cells
T1 sequence (P21589 27-549): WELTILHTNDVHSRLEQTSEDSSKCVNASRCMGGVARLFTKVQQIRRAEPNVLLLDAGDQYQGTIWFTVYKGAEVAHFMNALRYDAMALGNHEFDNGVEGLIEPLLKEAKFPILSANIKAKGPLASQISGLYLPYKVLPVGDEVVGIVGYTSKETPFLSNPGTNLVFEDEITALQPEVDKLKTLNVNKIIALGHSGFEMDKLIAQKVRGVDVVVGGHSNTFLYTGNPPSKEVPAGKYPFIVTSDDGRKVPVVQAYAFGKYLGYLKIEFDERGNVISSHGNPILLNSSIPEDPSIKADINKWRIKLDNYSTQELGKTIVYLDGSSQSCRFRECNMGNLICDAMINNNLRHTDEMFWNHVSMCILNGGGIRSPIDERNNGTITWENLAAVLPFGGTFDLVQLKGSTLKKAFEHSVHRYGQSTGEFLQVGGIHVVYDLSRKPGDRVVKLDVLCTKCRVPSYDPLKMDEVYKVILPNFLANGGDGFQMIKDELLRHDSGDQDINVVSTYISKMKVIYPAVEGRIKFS
As to the kind of experiment: Enzymatic activity detection at the cellular level (Calu-6 cells, AMP substrate, Cell-titer Glo luminescence). Format: cell-based. The conditions noted are these: enzymatic IC50 at the Calu-6 cell level, 30 min pre-incubation, 120 min at 37° C. How it is done: The Calu-6 cells were digested and re-suspended using TM buffer (25 mM Tris, 5 mM MgCl2, pH 7.5). Calu-6 cell suspension was seeded into 96 well cell culture plate, and the number of cells per well was 2.5×10^4, adding volume of 100 μL/well. Compound solution with gradient concentration was prepared by TM buffer, and 50 μL DMSO solution with different concentration was added into each pore cell. […] Pre-incubated in a shaker at 37° C. for 30 min. Each well was added with 50 μL 800 μM AMP solution. The shaker at 37° C. for 120 min was continued to incubate, then the 96-well plates were centrifuged and 50 μL supernatant was transferred to the new 96-well plates. […] The luminescence value was read by the multi-function enzymatic reader and converted into the inhibition percentage: Inhibition percentage=(1−reading/Max)*100. The “maximum value” was DMSO control. IC50 values were obtained by curve fitting with GraphPad Prism software.
One may read the IC50 as the concentration needed to halve the response being measured. Low values mean greater potency in that assay, high ones weaker potency in that assay. Molecule `COc1nnc(-c2c[nH]c(=O)[nH]c2=O)cc1[C@H]1C[C@@H]1/C=C/c1ccccc1` [Compound 20, 5-(6-methoxy-S-((1S,2R)-2-((E)-styryl)cyclopropyl)pyridazin-3-yl)pyrimidine-2,4(1H,3H)-dione] had an IC50 of 1.2 nM.

In turn, `COc1nnc(-c2c[nH]c(=O)[nH]c2=O)cc1[C@H]1C[C@@H]1C#Cc1ccccc1` [Compound 21, 5-(6-methoxy-S-((1S,2S)-2-(phenylethynyl)cyclopropyl)pyridazin-3-yl)pyrimidine-2,4(1H,3H)-dione] had an IC50 of 5.5 nM. `Cc1nnc(-c2c[nH]c(=O)[nH]c2=O)cc1C1CC1c1ccccc1` (centres unmarked) [Compound 22, 5-(6-methyl-5-(2-phenylcyclopropyl)pyridazin-3-yl)pyrimidine-2,4(1H,3H)-dione] returned an IC50 of 22.7 nM. The value for `O=c1[nH]cc(-c2cc(C3CC3c3ccccc3)c(Cl)nn2)c(=O)[nH]1` (centres unmarked) [Compound 23, 5-(6-chloro-5-(2-phenylcyclopropyl)pyridazin-3-yl)pyrimidine-2,4(1H,3H)-dione] was 1.4 nM; that for `Cc1ccc(C2CC2c2cc(-c3c[nH]c(=O)[nH]c3=O)nnc2Cl)cc1` (stereo not drawn) [Compound 24, 5-(6-chloro-S-(2-(p-tolyl)cyclopropyl)pyridazin-3-yl)pyrimidine-2,4(1H,3H)-dione] was 5.2 nM. The value for `N#Cc1ccc(C2CC2c2cc(-c3c[nH]c(=O)[nH]c3=O)nnc2Cl)cc1` (centres unmarked) [Compound 25, 4-(2-(3-chloro-6-(2,4-dioxo-1,2,3,4-tetrahydropyrimidin-5-yl)pyridazin-4-yl)cyclopropyl)benzonitrile] was 1.8 nM; that for `N#Cc1cccc(C2CC2c2cc(-c3c[nH]c(=O)[nH]c3=O)nnc2Cl)c1` (centres unmarked) [Compound 26, 3-(2-(3-chloro-6-(2,4-dioxo-1,2,3,4-tetrahydropyrimidin-5-yl)pyridazin-4-yl)cyclopropyl)benzonitrile] was 8.7 nM.

`O=c1[nH]cc(-c2cc(C3CC3c3ccc(F)cc3)c(Cl)nn2)c(=O)[nH]1` (centres unmarked) [Compound 27, 5-(6-chloro-5-(2-(4-fluorophenyl)cyclopropyl)pyridazin-3-yl)pyrimidine-2,4(1H,3H)-dione] came in with an IC50 of 1.8 nM. As for `O=c1[nH]cc(-c2cc(C3CC3c3ccc(Cl)cc3)c(Cl)nn2)c(=O)[nH]1` (centres unmarked) [Compound 28, 5-(6-chloro-5-(2-(4-chlorophenyl)cyclopropyl)pyridazin-3-yl)pyrimidine-2,4(1H,3H)-dione], the 50% inhibitory concentration (IC50) was found to be 2.7 nM.

Regarding `COc1cccc(C2CC2c2cc(-c3c[nH]c(=O)[nH]c3=O)nnc2Cl)c1` (centres unmarked) [Compound 29, 5-(6-chloro-5-(2-(3-methoxyphenyl)cyclopropyl)pyridazin-3-yl)pyrimidine-2,4(1H,3H)-dione], the concentration for half-maximal inhibition (IC50) stood at 4.1 nM.

In the case of `O=c1[nH]cc(-c2cc(C3CC3c3cccc4ccccc34)c(Cl)nn2)c(=O)[nH]1` (stereo not drawn) [Compound 30, 5-(6-chloro-S-(2-(naphthalen-1yl)cyclopropyl)pyridazin-3-yl)pyrimidine-2,4(1H,3H)-dione], 60 nM corresponded to half-maximal inhibition (IC50). Then `COc1nnc(-c2c[nH]c(=O)[nH]c2=O)cc1C1CC1c1ccccc1` (centres unmarked) [Compound 31, 5-(6-methoxy-5-(2-phenylcyclopropyl)pyridazin-3-yl)pyrimidine-2,4(1H,3H)-dione], with 4.2 nM; and `COc1nnc(-c2c[nH]c(=O)[nH]c2=O)cc1C1CC1c1ccc(F)cc1` (centres unmarked) [Compound 32, 5-(5-(2-(4-fluorophenyl)cyclopropyl)-6-methoxypyridazin-3-yl)pyrimidine-2,4(1H,3H)-dione], with 5.4 nM; and `COc1nnc(-c2c[nH]c(=O)[nH]c2=O)cc1C1CC1c1ccc(Cl)cc1` (centres unmarked) [Compound 33, 5-(5-(2-(4-chlorophenyl)cyclopropyl)-6-methoxypyridazin-3-yl)pyrimidine-2,4(1H,3H)-dione], with 3.9 nM.

In the case of `N#Cc1nnc(-c2c[nH]c(=O)[nH]c2=O)cc1C1CC1c1ccccc1` (centres unmarked) [Compound 34, 6-(2,4-dioxo-1,2,3,4-tetrahydropyrimidin-5-yl)-4-(2-phenylcyclopropyl)pyridazine-3-carbonitrile], half-maximal inhibition (IC50) required 5.9 nM.

In turn, `N#Cc1nnc(-c2c[nH]c(=O)[nH]c2=O)cc1C1CC1c1ccc(F)cc1` (centres unmarked) [Compound 35, 6-(2,4-dioxo-1,2,3,4-tetrahydropyrimidin-5-yl)-4-(2-(4-fluorophenyl)cyclopropyl)pyridazine-3-carbonitrile] returned an IC50 of 1.1 nM. `N#Cc1nnc(-c2c[nH]c(=O)[nH]c2=O)cc1C1CC1c1ccc(Cl)cc1` (centres unmarked) [Compound 36, 4-(2-(4-chlorophenyl)cyclopropyl)-6-(2,4-dioxo-1,2,3,4-tetrahydropyrimidin-5-yl)pyridazine-3-carbonitrile] displayed an IC50 of 1.9 nM. Then `O=c1[nH]cc(-c2cc([C@H]3C[C@@H]3C#Cc3ccncc3)c(Cl)nn2)c(=O)[nH]1` [Compound 37, 5-(6-chloro-5-((1S,2S)-2-(pyridin-4-ylethynyl)cyclopropyl)pyridazin-3-yl)pyrimidine-2,4(1H, 3H)-dione], with 1.2 nM. The value for `N#Cc1ccc(C#C[C@H]2C[C@@H]2c2cc(-c3c[nH]c(=O)[nH]c3=O)nnc2Cl)nc1` [Compound 38, 6-(((1S,2S)-2-(3-chloro-6-(2,4-dioxo-1,2,3,4-tetrahydropyrimidin-5-yl)pyridazin-4-yl)cyclopropyl)ethynyl)nicotinonitrile] was 3.7 nM; that for `C=C[C@H]1C[C@@H]1c1cc(-c2c[nH]c(=O)[nH]c2=O)nnc1OC` [Compound 39, 5-(6-methoxy-S-((1S,2R)-2-vinylcyclopropyl)pyridazin-3-yl)pyrimidine-2,4(1H,3H)-dione] was 2.5 nM; that for `Cc1nnc(-c2c[nH]c(=O)[nH]c2=O)cc1[C@H]1C[C@@H]1C#Cc1ccccc1` [Compound 41, 5-(6-methyl-5-((1S,2S)-2-(phenylethynyl)cyclopropyl)pyridazin-3-yl)pyrimidine-2,4(1H,3H)-dione] was 7.5 nM.

`O=c1[nH]cc(-c2cc([C@H]3C[C@@H]3C#Cc3cccnc3)c(Cl)nn2)c(=O)[nH]1` [Compound 42] had an IC50 of 4.4 nM. As for `O=c1[nH]cc(-c2cc([C@H]3C[C@@H]3C#Cc3ccccn3)c(Cl)nn2)c(=O)[nH]1` [Compound 43], the IC50 is 3.7 nM.

On to `COc1ccc(C#C[C@H]2C[C@@H]2c2cc(-c3c[nH]c(=O)[nH]c3=O)nnc2Cl)cc1` [Compound 44], for which it took 3.1 nM to reach half-maximal inhibition (IC50). The value for `N#Cc1ccc(C#C[C@H]2C[C@@H]2c2cc(-c3c[nH]c(=O)[nH]c3=O)nnc2Cl)cc1` [Compound 45] was 1.5 nM; that for `N#Cc1ccccc1C#C[C@H]1C[C@@H]1c1cc(-c2c[nH]c(=O)[nH]c2=O)nnc1Cl` [Compound 46] was 4.4 nM; that for `O=c1[nH]cc(-c2cc([C@H]3C[C@@H]3C#Cc3ccc(Cl)cc3)c(Cl)nn2)c(=O)[nH]1` [Compound 47] was 7.8 nM. `O=c1[nH]cc(-c2cc([C@H]3C[C@@H]3C#Cc3ccc(F)cc3)c(Cl)nn2)c(=O)[nH]1` [Compound 48] showed an IC50 of 3.8 nM. Then `COc1nnc(-c2c[nH]c(=O)[nH]c2=O)cc1[C@H]1C[C@@H]1C#Cc1ccc(C#N)cc1` [Compound 50], with 12.6 nM; and `COc1nnc(-c2c[nH]c(=O)[nH]c2=O)cc1[C@H]1C[C@@H]1C#Cc1cccc(C#N)c1` [Compound 51], with 4.3 nM. Take `COc1nnc(-c2c[nH]c(=O)[nH]c2=O)cc1[C@H]1C[C@@H]1C#Cc1ccccn1` [Compound 52]: the IC50 amounted to 5.8 nM. For `COc1nnc(-c2c[nH]c(=O)[nH]c2=O)cc1[C@H]1C[C@@H]1C#Cc1cccnc1` [Compound 53], the concentration for half-maximal inhibition (IC50) worked out at 2.4 nM. The value for `N#Cc1nnc(-c2c[nH]c(=O)[nH]c2=O)cc1[C@H]1C[C@@H]1C#Cc1ccccc1` [Compound 54] was 8.2 nM; that for `N#Cc1ccc(C#C[C@H]2C[C@@H]2c2cc(-c3c[nH]c(=O)[nH]c3=O)nnc2C#N)cc1` [Compound 55] was 5.6 nM. Then `N#Cc1nnc(-c2c[nH]c(=O)[nH]c2=O)cc1[C@H]1C[C@@H]1C#Cc1ccccn1` [Compound 56], with 19.4 nM; and `O=c1[nH]cc(-c2cc([C@H]3C[C@@H]3c3ccccc3)cnn2)c(=O)[nH]1` [Compound 59, 5-(5-((1S,2S)-2-phenylcyclopropyl)pyridazin-3-yl)pyrimidine-2,4(1H,3H)-dione], with 9.9 nM; and `O=c1[nH]cc(-c2cc([C@H]3C[C@@H]3c3nc4ccccc4[nH]3)c(Cl)nn2)c(=O)[nH]1` [Compound 60, 5-(5-((1S,2S)-2-(1H-benzo[d]imidazol-2-yl)cyclopropyl)-6-chloropyridazin-3-yl)pyrimidine-2, 4(1H,3H)-dione], with 23.3 nM. Then `Cc1ccc(C2CC2c2cc(-c3c[nH]c(=O)[nH]c3=O)nnc2Cl)c(C)c1` (centres unmarked) [Compound 61], with 19 nM.

Source of the values: patent US20230321100A1, “CD73 INHIBITOR AND APPLICATION THEREOF IN MEDICINE” (BETTA PHARMACEUTICALS CO., LTD, priority 2020, published 2023).
